Results: US8609650B2, “Bridged bicyclic aryl and bridged bicyclic heteroaryl substituted triazoles useful as Axl inhibitors” (Rigel Pharmaceuticals, Inc., priority 2006, dated 2013)

What follows are molecules tested against T1, Axl (Homo sapiens, UniProt P30530) (assay: Phospho-Akt In-Cell Western Assay (ability to inhibit Axl activity)). Conditions: Hela cells, stimulated by Axl-antibody cross-linking, phospho-Akt chemiluminescence normalized to relative cell number.
T1 construct: endogenous in cells; host or cells: HeLa cells
T1 sequence (P30530 26-894): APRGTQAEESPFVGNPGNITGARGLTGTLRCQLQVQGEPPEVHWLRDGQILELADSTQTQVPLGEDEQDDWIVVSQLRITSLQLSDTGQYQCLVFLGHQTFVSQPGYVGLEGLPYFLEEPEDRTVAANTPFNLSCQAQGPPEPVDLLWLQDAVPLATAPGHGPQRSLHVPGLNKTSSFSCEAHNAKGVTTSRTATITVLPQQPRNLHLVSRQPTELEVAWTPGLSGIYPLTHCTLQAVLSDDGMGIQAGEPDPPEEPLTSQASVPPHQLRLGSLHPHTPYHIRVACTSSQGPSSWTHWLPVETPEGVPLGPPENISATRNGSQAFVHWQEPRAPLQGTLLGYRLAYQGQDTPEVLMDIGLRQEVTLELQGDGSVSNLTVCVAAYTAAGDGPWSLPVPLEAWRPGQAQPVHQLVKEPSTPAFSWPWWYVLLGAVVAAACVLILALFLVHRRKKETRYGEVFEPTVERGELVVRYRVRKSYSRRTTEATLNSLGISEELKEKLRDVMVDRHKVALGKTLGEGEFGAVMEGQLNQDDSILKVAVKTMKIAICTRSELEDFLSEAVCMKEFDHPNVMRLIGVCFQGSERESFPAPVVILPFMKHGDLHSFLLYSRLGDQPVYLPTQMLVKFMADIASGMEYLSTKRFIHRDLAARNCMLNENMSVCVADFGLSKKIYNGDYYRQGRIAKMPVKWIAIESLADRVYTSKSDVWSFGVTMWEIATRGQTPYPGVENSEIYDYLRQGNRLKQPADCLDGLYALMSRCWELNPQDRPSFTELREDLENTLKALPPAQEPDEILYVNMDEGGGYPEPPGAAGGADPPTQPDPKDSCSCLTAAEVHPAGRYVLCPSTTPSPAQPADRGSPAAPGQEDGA
Type: cell-based
Procedure, shortened: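 HeLa cells starved 24 h in 0.5% FCS with Axl/Fc 500 ng/mL, pre-treated 1 h at 37° C with compound, then stimulated 5 min by anti-Axl antibody cross-linking. Fixed cells probed for phospho-Akt with HRP secondary; chemiluminescence read.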

SMILES | IC50
Cc1cc(Nc2nc(N)n(-c3cc(-c4ccccc4)c4c(n3)C3CCC4C3)n2)cnc1N1CCN(CC2CC2)CC1 (centres unmarked) [Compound 51, 1-(5,8-methano-4-phenyl-5,6,7,8-tetrahydroquinoline-2-yl)-N^3-(3-methyl-2-(4-cyclopropylmethylpiperazin-1-yl)pyridine-5-yl)-1H-1,2,4-triazole-3,5-diamine] | 1 to 10 µM
Nc1nc(Nc2ccc(N3CCC(N4CCC[C@H]4C(=O)O)CC3)c(F)c2)nn1-c1cc(-c2ccccc2)c2c(n1)C1CCN2CC1 [Compound 61, 1-(1,4-ethano-8-phenyl-1,2,3,4-tetrahydro-1,5-naphthyridin-6-yl)-N^3-(3-fluoro-4-(4-((2S)-2-carboxypyrrolidin-1-yl)piperidin-1-yl)phenyl)-1H-1,2,4-triazole-3,5-diamine] | < 1 µM
Nc1nc(Nc2ccc(N3CCN(C4CCCCC4)CC3)c(F)c2)nn1-c1cc(-c2ccccc2)c2c(n1)C1CCN2CC1 [Compound 37, 1-(1,4-ethano-8-phenyl-1,2,3,4-tetrahydro-1,5-naphthyridin-6-yl)-N^3-(3-fluoro-4-(4-cyclohexylpiperazin-1-yl)phenyl)-1H-1,2,4-triazole-3,5-diamine] | < 1 µM
CN(C)C1CCN(c2ccc(Nc3nc(N)n(-c4cc(-c5cccs5)c5c(n4)C4CCC5C4)n3)cc2F)CC1 (centres unmarked) [Compound 54, 1-(5,8-methano-4-thiophen-2-yl-5,6,7,8-tetrahydroquinoline-2-yl)-N^3-(3-fluoro-4-(4-dimethylaminopiperidin-1-yl)phenyl)-1H-1,2,4-triazole-3,5-diamine] | < 1 µM
CN1CCN(c2ccc(Nc3nc(N)n(-c4cc(-c5ccccc5)c5c(n4)C4CCN5CC4)n3)cn2)CC1 [Compound 28, 1-(1,4-ethano-8-phenyl-1,2,3,4-tetrahydro-1,5-naphthyridin-6-yl)-N^3-(2-(4-methylpiperazin-1-yl)pyridine-5-yl)-1H-1,2,4-triazole-3,5-diamine] | < 1 µM

Results, then the molecule that gave them:

IC50 | SMILES
< 1 µM | Nc1nc(Nc2ccc3c(c2)CCC(N2CCCC2)CC3)nn1-c1cc(-c2cccs2)c2c(n1)C1CCC2C1 (centres unmarked) [Compound 48, 1-(5,8-methano-4-thiophen-2-yl-5,6,7,8-tetrahydroquinoline-2-yl)-N^3-(7-pyrrolidin-1-yl-6,7,8,9-tetrahydro-5H-benzo[7]annulene-3-yl)-1H-1,2,4-triazole-3,5-diamine]
< 1 µM | Nc1nc(Nc2ccc(N3CCC(N4CCCC4)CC3)c(F)c2)nn1-c1ncc2c(n1)C1CCC2C1 (centres unmarked) [Compound 11, 1-(5,8-methano-5,6,7,8-tetrahydroquinazolin-2-yl)-N^3-(3-fluoro-4-(4-(pyrrolidin-1-yl)piperidin-1-yl)phenyl)-1H-1,2,4-triazole-3,5-diamine]
< 1 µM | CN1CCN(c2ccc(Nc3nc(N)n(-c4ncnc5c4C4CCC5C4)n3)cc2)CC1 (centres unmarked) [Compound 20, 1-(5,8-methano-5,6,7,8-tetrahydroquinazolin-4-yl)-N^3-(4-(4-methylpiperazin-1-yl)phenyl)-1H-1,2,4-triazole-3,5-diamine]
< 1 µM | COC(=O)[C@@H]1CCCN1C1CCN(c2ccc(Nc3nc(N)n(-c4cc(-c5ccccc5)c5c(n4)C4CCN5CC4)n3)cc2F)CC1 [Compound 60, 1-(1,4-ethano-8-phenyl-1,2,3,4-tetrahydro-1,5-naphthyridin-6-yl)-N^3-(3-fluoro-4-(4-((2S)-2-methyloxycarbonylpyrrolidin-1-yl)piperidin-1-yl)phenyl)-1H-1,2,4-triazole-3,5-diamine]
< 1 µM | Nc1nc(Nc2ccc(OCCN3CCCC3)cc2)nn1-c1ncnc2c1C1CCC2C1 (centres unmarked) [Compound 19, 1-(5,8-methano-5,6,7,8-tetrahydroquinazolin-4-yl)-N^3-(4-(2-(pyrrolidin-1-yl)ethoxy)phenyl)-1H-1,2,4-triazole-3,5-diamine]
< 1 µM | COc1ccc(-c2cc(-n3nc(Nc4ccc(N5CCC(N6CCCC6)CC5)c(F)c4)nc3N)nc3c2N2CCC3CC2)cc1 [Compound 62, 1-(1,4-ethano-8-(4-methoxyphenyl)-1,2,3,4-tetrahydro-1,5-naphthyridin-6-yl)-N^3-(3-fluoro-4-(4-(pyrrolidin-1-yl)piperidin-1-yl)phenyl)-1H-1,2,4-triazole-3,5-diamine]
